Reference: US20260355137A1, “NOVEL OPHTHALMIC FORMULATION” (FERTIS INDIA PVT LTD, priority 2022, published 2026)
Entries after “also recorded” stand apart in the source; their conditions may differ.

Tests used:
Assay type in all cases: in vivo, New Zealand rabbit
[1] = system: intraocular pressure, induced left eye; assay: Intraocular pressure, tonometer (Table 13); parameters: unit not given beside the values; settings: left eye induced/treated
Procedure: (§1) Cataract was induced by injecting 0.5% Methyl Cellulose, which is replaced by aqueous humor in the rabbit eye (i.e., 0.2 mL of Aqueous humor was withdrawn and the same 0.2 mL of 0.5% Methyl cellulose was injected as a replacement). Cataract was observed within 3-4 days of 0.5% Methyl cellulose replacement. Cataract induction was performed to left eye and right eye was served as a control.
(§2) Rabbits were observed by ophthalmoscope and slit lamp once in three days for cataract confirmation. Intraocular pressure was measured with a tonometer once in three days for the confirmation of glaucoma.
(§3) Intra-ocular pressures were measured in animals in each group once in three days using a Tonometer. The readings were documented for each eye separately.

[2] = system: cataract induced left eye; assay: Macroscopic examination, cataract induced left eye (cinnamic acid derivatives, Tables 10-11); settings: left eye (cataract induced), macroscopic; for No Abnormality Detected, incidence: animals affected/6
Procedure: (§4) An illustrative ophthalmic formulation for treatment of eye disease is set forth below: The formulations provided herein below are tested in cataract induced New Zealand rabbits, and the results are discussed herein below.
as §1, §2

[3] = system: cataract induced left eye: lens; assay: Microscopic observations (histopathology) of lens (Table 12); settings: left eye (cataract induced)
Procedure: as §4, §1
(§5) All surviving animals were euthanized on Day 29 by overdose of Thiopental Sodium. Before scheduled euthanasia, the animals were fasted overnight (water allowed) and terminal body weights were recorded. Animals were subjected to detailed macroscopic observation during necropsy. Both right (untreated/uninduced) and left (treated/induced) eyes were collected and cornea and lens were separated, preserved in Davidson fluid. Cornea and lens selected for histopathological evaluation were processed, embedded and sections were cut at 3-5 μm thickness, Sections were placed on grease-free slides and stained with Hematoxylin and Eosin. A 5-step grading system of minimum, mild, moderate, marked and severe will be used to rank microscopic findings for comparison among groups. Data was compiled based on incidences and severity of changes.

[4] = system: cataract induced left eye; assay: Macroscopic examination, cataract induced left eye (Tables 14-15); settings: for cataract efficacy, macroscopic (in words): Table 15; for No Abnormality Detected, incidence: left eye (cataract induced), macroscopic
Procedure: as §4, §1, §2

[5] = system: cataract induced left eye: lens and cornea; assay: Microscopic examination (histopathology) of lens and cornea (Table 16); settings: for cataract efficacy, histopathology (in words): Table 16
Procedure: as §4, §1, §5

[6] = system: intraocular pressure, glaucoma-induced left eye; assay: Intraocular pressure, tonometer (Table 17); settings: for Intraocular pressure, Mean, Left eye: Left (induced) eye; for Intraocular pressure, Mean, Left eye / Intraocular pressure, Mean, Right eye: male, 6 animals/group; for intraocular pressure following treatment / mean intraocular pressure initially measured: induced left eye; for intraocular pressure following treatment: 28-day treatment regimen, 0.5%; for mean intraocular pressure initially measured: six animals, within three days
Procedure: as §1, §2, §3

[7] = system: cataract and intraocular pressure/glaucoma in induced rabbit eye; assay: Overall efficacy in cataract reduction and reducing intraocular pressure; settings: third study; cataract reduction and reducing intraocular pressure, highest to lowest
Procedure: as §4
The following preclinical studies were conducted in rabbit model to test the efficacy of various active ingredients.
as §1, §2

[8] = Day 28, ↓↓ = Significantly low at P ≤ 0.01 compared to respective control

O=C(/C=C/c1ccc(O)c(O)c1)OCCc1ccccc1 [Caffeic Acid Phenyl ethyl Ester, caffeic acid phenylethyl ester]
Intraocular Pressure, mean ([1]; Day 3): 88.07
Intraocular Pressure, mean ([1]; Day 6): 84.95
Intraocular Pressure, mean ([1]; Day 9): 84.67
Intraocular Pressure, mean ([1]; Day 12): 55.95
Intraocular Pressure, mean ([1]; Day 15): 42.80
Intraocular Pressure, mean ([1]; Day 18): 42.18
Intraocular Pressure, mean ([1]; Day 21): 40.93
Intraocular Pressure, mean ([1]; Day 24): 39.67
Intraocular Pressure, mean ([1]; Day 27): 36.27
Intraocular Pressure, mean ([1]; Day 30): 39.42
Intraocular Pressure, mean ([1]; Day 33): 41.85↓↓
Opacity, cornea and red discoloured, with diffuse opacity: Moderate, incidence [2]: 4/6
Opacity, cornea, diffuse: Minimal, incidence [2]: 1/6
Opacity, cornea, diffuse: Moderate, incidence [2]: 1/6
No Abnormality Detected, incidence [2]: 0/6
Within Normal Histological Limits, incidence [3]: 0/6
Epithelial proliferation, incidence ([3]; lens): 6/6
Lenticular Degeneration, incidence ([3]; lens): 6/6
Liquefaction, incidence ([3]; lens): 6/6
Epithelial proliferation: Marked, incidence ([3]; lens, number of animals): 1
Epithelial proliferation: Mild, incidence ([3]; lens, number of animals): 3
Epithelial proliferation: Minimal, incidence ([3]; lens, number of animals): 2
Liquefaction: Mild, incidence ([3]; lens, number of animals): 2
Liquefaction: Moderate, incidence ([3]; lens, number of animals): 4

O=C(/C=C/c1ccc(O)c(O)c1)NCCc1ccccc1 [Caffeic Acid Phenylethyl Amide, caffeic acid phenylethyl amide]
Intraocular Pressure, mean ([1]; Day 3): 86.65
Intraocular Pressure, mean ([1]; Day 6): 79.88
Intraocular Pressure, mean ([1]; Day 9): 78.77
Intraocular Pressure, mean ([1]; Day 12): 72.72
Intraocular Pressure, mean ([1]; Day 15): 50.78
Intraocular Pressure, mean ([1]; Day 18): 49.95
Intraocular Pressure, mean ([1]; Day 21): 45.67
Intraocular Pressure, mean ([1]; Day 24): 49.77
Intraocular Pressure, mean ([1]; Day 27): 36.27
Intraocular Pressure, mean ([1]; Day 30): 25.85
Intraocular Pressure, mean ([1]; Day 33): 36.68↓↓
Opacity, cornea and red discoloured, with diffuse opacity: Moderate, incidence [2]: 1/6
Opacity, cornea, diffuse: Mild, incidence [2]: 2/6
Opacity, cornea, diffuse: Minimal, incidence [2]: 3/6
No Abnormality Detected, incidence [2]: 0/6
Within Normal Histological Limits, incidence [3]: 0/6
Epithelial proliferation, incidence ([3]; lens): 2/6
Epithelial proliferation: Absent, incidence ([3]; lens): 4/6
Lenticular Degeneration, incidence ([3]; lens): 5/6
Liquefaction, incidence ([3]; lens): 5/6
Liquefaction: Absent, incidence ([3]; lens): 1/6
Epithelial proliferation: Mild, incidence ([3]; lens, number of animals): 2
Liquefaction: Mild, incidence ([3]; lens, number of animals): 2
Liquefaction: Minimal, incidence ([3]; lens, number of animals): 3

O=C(O[C@@H]1Cc2c(O)cc(O)cc2O[C@@H]1c1cc(O)c(O)c(O)c1)c1cc(O)c(O)c(O)c1 [Epigallocatechin Gallate, (2R,3R)-2-(3,4,5-trihydroxyphenyl)-3,4-dihydro-1(2H)-benzopyran-3,5,7-triol 3-(3,4,5-trihydroxy benzoate)]
cataract efficacy, macroscopic (in words) [4]: complete recovery in all 6 animals, with no observable cataracts
No Abnormality Detected, incidence [4]: 6/6
cataract efficacy, histopathology (in words) [5]: fully restored, or regenerated in all 6 out of 6 animals, transitioning from severe degeneration to a milder state; also recorded: Only one animal exhibited mild corneal inflammation
Cornea, Inflammation: Mild, incidence ([5]; left eye induced): 1/6
Lens, Liquefaction: Mild, incidence ([5]; left eye induced): 6/6
Intraocular pressure, Mean, Left eye ([6]; Day 3): 29.72 mmHg
Intraocular pressure, Mean, Left eye ([6]; Day 6): 33.06 mmHg
Intraocular pressure, Mean, Left eye ([6]; Day 9): 26.56 mmHg
Intraocular pressure, Mean, Left eye ([6]; Day 12): 32.50 mmHg
Intraocular pressure, Mean, Left eye ([6]; Day 15): 26.39 mmHg
Intraocular pressure, Mean, Left eye ([6]; Day 18): 28.94 mmHg
Intraocular pressure, Mean, Left eye ([6]; Day 21): 27.11 mmHg
Intraocular pressure, Mean, Left eye ([6]; Day 25): 25.56 mmHg
Intraocular pressure, Mean, Left eye [6, 8]: 20.00↓↓ mmHg
Intraocular pressure, Mean, Right eye ([6]; Day 3): 18.11 mmHg
Intraocular pressure, Mean, Right eye ([6]; Day 6): 16.94 mmHg
Intraocular pressure, Mean, Right eye ([6]; Day 9): 16.78 mmHg
Intraocular pressure, Mean, Right eye ([6]; Day 12): 17.00 mmHg
Intraocular pressure, Mean, Right eye ([6]; Day 15): 12.56 mmHg
Intraocular pressure, Mean, Right eye ([6]; Day 18): 16.61 mmHg
Intraocular pressure, Mean, Right eye ([6]; Day 21): 16.06 mmHg
Intraocular pressure, Mean, Right eye ([6]; Day 25): 18.17 mmHg
Intraocular pressure, Mean, Right eye ([6]; Day 28): 16.11 mmHg
intraocular pressure following treatment [6]: 20.00 mmHg
mean intraocular pressure initially measured [6]: 29.72 mmHg
overall efficacy / order of efficacy (in words) [7]: outstanding efficacy in reducing cataracts and also demonstrated a significant capability to address glaucoma; also recorded: Caffeic Acid G3>Epigallocatechin Gallate G4>Encapsulated Feruloyl Tyramine G5>Ferulic Acid G6>Rosmarinic Acid+Caffeic Acid G2

COc1cc(/C=C/C(=O)O)ccc1O [Ferulic acid]
cataract efficacy, macroscopic (in words) [4]: complete recovery from cataracts in all 6 animals
No Abnormality Detected, incidence [4]: 6/6
cataract efficacy, histopathology (in words) [5]: minimal to moderate lenticular degeneration
Lens, Liquefaction: Mild, incidence ([5]; left eye induced): 4/6
Lens, Liquefaction: Minimal, incidence ([5]; left eye induced): 1/6
Lens, Liquefaction: Moderate, incidence ([5]; left eye induced): 1/6
Intraocular pressure, Mean, Left eye ([6]; Day 3): 30.39 mmHg
Intraocular pressure, Mean, Left eye ([6]; Day 6): 28.39 mmHg
Intraocular pressure, Mean, Left eye ([6]; Day 9): 28.28 mmHg
Intraocular pressure, Mean, Left eye ([6]; Day 12): 25.33 mmHg
Intraocular pressure, Mean, Left eye ([6]; Day 15): 26.00 mmHg
Intraocular pressure, Mean, Left eye ([6]; Day 18): 26.56 mmHg
Intraocular pressure, Mean, Left eye ([6]; Day 21): 23.22 mmHg
Intraocular pressure, Mean, Left eye ([6]; Day 25): 21.72 mmHg
Intraocular pressure, Mean, Left eye [6, 8]: 23.67↓↓ mmHg
Intraocular pressure, Mean, Right eye ([6]; Day 3): 17.28 mmHg
Intraocular pressure, Mean, Right eye ([6]; Day 6): 16.89 mmHg
Intraocular pressure, Mean, Right eye ([6]; Day 9): 16.89 mmHg
Intraocular pressure, Mean, Right eye ([6]; Day 12): 17.56 mmHg
Intraocular pressure, Mean, Right eye ([6]; Day 15): 14.94 mmHg
Intraocular pressure, Mean, Right eye ([6]; Day 18): 14.94 mmHg
Intraocular pressure, Mean, Right eye ([6]; Day 21): 17.06 mmHg
Intraocular pressure, Mean, Right eye ([6]; Day 25): 17.61 mmHg
Intraocular pressure, Mean, Right eye ([6]; Day 28): 17.28 mmHg
intraocular pressure following treatment [6]: 23.67 mmHg
mean intraocular pressure initially measured [6]: 30.39 mmHg
overall efficacy / order of efficacy (in words) [7]: Caffeic Acid G3>Epigallocatechin Gallate G4>Encapsulated Feruloyl Tyramine G5>Ferulic Acid G6>Rosmarinic Acid+Caffeic Acid G2
